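Results reflect a 48-hour exposure of cells in 96-well plates to compound at five concentrations. TGI: concentration producing complete growth inhibition.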
Legend:
Assay in all cases: NCI-60 cell line screen, 48 h
MOLT-4 leukemia = test system: MOLT-4 leukemia
UACC-62 melanoma = test system: UACC-62 melanoma
HOP-92 NSCLC = test system: HOP-92 NSCLC
DU-145 prostate = test system: DU-145 prostate
SNB-19 CNS = test system: SNB-19 CNS
OVCAR-4 ovarian = test system: OVCAR-4 ovarian
NCI-H23 lung = test system: NCI-H23 lung
SR leukemia = test system: SR leukemia
SW-620 colon = test system: SW-620 colon
SK-MEL-28 melanoma = test system: SK-MEL-28 melanoma
HT29 colon = test system: HT29 colon
ACHN renal = test system: ACHN renal
SNB-75 CNS = test system: SNB-75 CNS
SF-268 CNS = test system: SF-268 CNS
UO-31 renal = test system: UO-31 renal
MALME-3M melanoma = test system: MALME-3M melanoma
SF-539 CNS = test system: SF-539 CNS
TK-10 renal = test system: TK-10 renal
T-47D breast = test system: T-47D breast
A549 NSCLC = test system: A549 NSCLC
SN12C renal = test system: SN12C renal
LOX IMVI melanoma = test system: LOX IMVI melanoma
MDA-N = test system: MDA-N
HL-60(TB) leukemia = test system: HL-60(TB) leukemia
A498 renal = test system: A498 renal
EKVX NSCLC = test system: EKVX NSCLC
K-562 leukemia = test system: K-562 leukemia
BT-549 breast = test system: BT-549 breast
OVCAR-5 ovarian = test system: OVCAR-5 ovarian
786-0 renal = test system: 786-0 renal
KM12 colon = test system: KM12 colon
SF-295 CNS = test system: SF-295 CNS
HCT-15 colon = test system: HCT-15 colon
M14 melanoma = test system: M14 melanoma
SK-MEL-5 melanoma = test system: SK-MEL-5 melanoma
U251 CNS = test system: U251 CNS
RXF 393 renal = test system: RXF 393 renal
HCC-2998 colon = test system: HCC-2998 colon
MDA-MB-435 = test system: MDA-MB-435
HOP-62 NSCLC = test system: HOP-62 NSCLC
NCI-H522 lung = test system: NCI-H522 lung
NCI-H226 lung = test system: NCI-H226 lung
IGROV1 ovarian = test system: IGROV1 ovarian
PC-3 prostate = test system: PC-3 prostate
SK-OV-3 ovarian = test system: SK-OV-3 ovarian
OVCAR-8 ovarian = test system: OVCAR-8 ovarian
RPMI-8226 leukemia = test system: RPMI-8226 leukemia
MCF7 breast = test system: MCF7 breast
NCI-H460 lung = test system: NCI-H460 lung
CAKI-1 renal = test system: CAKI-1 renal
HCT-116 colon = test system: HCT-116 colon
HS 578T breast = test system: HS 578T breast
NCI/ADR-RES ovarian = test system: NCI/ADR-RES ovarian
OVCAR-3 ovarian = test system: OVCAR-3 ovarian
COLO 205 colon = test system: COLO 205 colon
MDA-MB-231 breast = test system: MDA-MB-231 breast
SK-MEL-2 melanoma = test system: SK-MEL-2 melanoma
UACC-257 melanoma = test system: UACC-257 melanoma
CCRF-CEM leukemia = test system: CCRF-CEM leukemia

CNC(=O)CCC(NC(=O)OC(C)(C)C)C(=O)NC(Cc1ccc(NC(=O)CCCCC(C)=O)cc1)C(=O)NCC(=O)NC (stereo unspecified)
TGI (MOLT-4 leukemia): > 100 µM | TGI (UACC-62 melanoma): > 100 µM | TGI (HOP-92 NSCLC): > 100 µM | TGI (DU-145 prostate): > 100 µM | TGI (SNB-19 CNS): > 100 µM | TGI (OVCAR-4 ovarian): > 100 µM | TGI (NCI-H23 lung): > 100 µM | TGI (SR leukemia): > 100 µM | TGI (SW-620 colon): > 100 µM | TGI (SK-MEL-28 melanoma): > 100 µM | TGI (HT29 colon): > 100 µM | TGI (ACHN renal): > 100 µM | TGI (SNB-75 CNS): > 100 µM | TGI (SF-268 CNS): > 100 µM | TGI (UO-31 renal): > 100 µM | TGI (MALME-3M melanoma): > 100 µM | TGI (SF-539 CNS): > 100 µM | TGI (TK-10 renal): > 100 µM | TGI (T-47D breast): > 100 µM | TGI (A549 NSCLC): > 100 µM | TGI (SN12C renal): > 100 µM | TGI (LOX IMVI melanoma): > 100 µM | TGI (MDA-N): > 100 µM | TGI (HL-60(TB) leukemia): > 100 µM | TGI (A498 renal): > 100 µM | TGI (EKVX NSCLC): > 100 µM | TGI (K-562 leukemia): > 100 µM | TGI (BT-549 breast): > 100 µM | TGI (OVCAR-5 ovarian): > 100 µM | TGI (786-0 renal): > 100 µM | TGI (KM12 colon): > 100 µM | TGI (SF-295 CNS): > 100 µM | TGI (HCT-15 colon): > 100 µM | TGI (M14 melanoma): > 100 µM | TGI (SK-MEL-5 melanoma): > 100 µM | TGI (U251 CNS): > 100 µM | TGI (RXF 393 renal): > 100 µM | TGI (HCC-2998 colon): > 100 µM | TGI (MDA-MB-435): > 100 µM | TGI (HOP-62 NSCLC): > 100 µM | TGI (NCI-H522 lung): > 100 µM | TGI (NCI-H226 lung): > 100 µM | TGI (IGROV1 ovarian): > 100 µM | TGI (PC-3 prostate): > 100 µM | TGI (SK-OV-3 ovarian): > 100 µM | TGI (OVCAR-8 ovarian): > 100 µM | TGI (RPMI-8226 leukemia): > 100 µM | TGI (MCF7 breast): > 100 µM | TGI (NCI-H460 lung): > 100 µM | TGI (CAKI-1 renal): > 100 µM | TGI (HCT-116 colon): > 100 µM | TGI (HS 578T breast): > 100 µM | TGI (NCI/ADR-RES ovarian): > 100 µM | TGI (OVCAR-3 ovarian): > 100 µM | TGI (COLO 205 colon): > 100 µM | TGI (MDA-MB-231 breast): > 100 µM

C[C@H](CCC(=O)NN)[C@H]1CC[C@H]2[C@@H]3CC[C@@H]4C[C@H](O)CC[C@]4(C)[C@H]3CC[C@]12C
TGI (MOLT-4 leukemia): > 52.7 µM | TGI (UACC-62 melanoma): > 100 µM | TGI (HOP-92 NSCLC): > 100 µM | TGI (DU-145 prostate): > 88.8 µM | TGI (SK-MEL-2 melanoma): > 100 µM | TGI (SNB-19 CNS): > 100 µM | TGI (OVCAR-4 ovarian): > 100 µM | TGI (NCI-H23 lung): > 100 µM | TGI (SR leukemia): 62.2 µM | TGI (SW-620 colon): > 100 µM | TGI (SK-MEL-28 melanoma): > 100 µM | TGI (HT29 colon): > 100 µM | TGI (ACHN renal): > 100 µM | TGI (SF-268 CNS): > 100 µM | TGI (UO-31 renal): > 100 µM | TGI (MALME-3M melanoma): > 100 µM | TGI (SF-539 CNS): > 100 µM | TGI (TK-10 renal): > 93.8 µM | TGI (T-47D breast): > 100 µM | TGI (A549 NSCLC): > 100 µM | TGI (SN12C renal): > 100 µM | TGI (LOX IMVI melanoma): > 100 µM | TGI (MDA-N): > 100 µM | TGI (HL-60(TB) leukemia): 37.6 µM | TGI (A498 renal): > 100 µM | TGI (EKVX NSCLC): > 100 µM | TGI (K-562 leukemia): 41.1 µM | TGI (UACC-257 melanoma): > 100 µM | TGI (BT-549 breast): > 100 µM | TGI (OVCAR-5 ovarian): > 100 µM | TGI (786-0 renal): > 100 µM | TGI (KM12 colon): > 100 µM | TGI (SF-295 CNS): > 100 µM | TGI (HCT-15 colon): > 100 µM | TGI (M14 melanoma): 72.4 µM | TGI (SK-MEL-5 melanoma): 56.4 µM | TGI (U251 CNS): > 100 µM | TGI (RXF 393 renal): 67.2 µM | TGI (HCC-2998 colon): > 90.6 µM | TGI (MDA-MB-435): > 100 µM | TGI (HOP-62 NSCLC): > 100 µM | TGI (NCI-H522 lung): > 70.1 µM | TGI (NCI-H226 lung): > 100 µM | TGI (IGROV1 ovarian): > 100 µM | TGI (PC-3 prostate): > 100 µM | TGI (SK-OV-3 ovarian): > 100 µM | TGI (OVCAR-8 ovarian): > 100 µM | TGI (RPMI-8226 leukemia): 59.9 µM | TGI (MCF7 breast): 97.1 µM | TGI (NCI-H460 lung): > 100 µM | TGI (CAKI-1 renal): > 100 µM | TGI (HCT-116 colon): > 100 µM | TGI (HS 578T breast): > 100 µM | TGI (NCI/ADR-RES ovarian): > 100 µM | TGI (OVCAR-3 ovarian): > 100 µM | TGI (COLO 205 colon): > 96 µM | TGI (MDA-MB-231 breast): > 100 µM | TGI (CCRF-CEM leukemia): > 72.1 µM

CCN1C/C(=C\c2cc(OC)c(OC)c(OC)c2)C2=NN(c3ccccc3)C(c3cc(OC)c(OC)c(OC)c3)C2C1 (stereo unspecified)
TGI (MOLT-4 leukemia): > 19.8 µM | TGI (UACC-62 melanoma): > 54.2 µM | TGI (HOP-92 NSCLC): 13.5 µM | TGI (DU-145 prostate): 23.6 µM | TGI (SK-MEL-2 melanoma): 31.9 µM | TGI (SNB-19 CNS): 6 µM | TGI (OVCAR-4 ovarian): 24.6 µM | TGI (NCI-H23 lung): 19.2 µM | TGI (SR leukemia): 65.5 µM | TGI (SW-620 colon): > 100 µM | TGI (SK-MEL-28 melanoma): 2 µM | TGI (HT29 colon): 6.8 µM | TGI (ACHN renal): > 36 µM | TGI (SNB-75 CNS): 1.32 µM | TGI (SF-268 CNS): 1.58 µM | TGI (UO-31 renal): 6.68 µM | TGI (MALME-3M melanoma): 1.64 µM | TGI (SF-539 CNS): 1.91 µM | TGI (TK-10 renal): 6.14 µM | TGI (T-47D breast): 18 µM | TGI (A549 NSCLC): 4.9 µM | TGI (SN12C renal): 11.3 µM | TGI (LOX IMVI melanoma): 10.6 µM | TGI (MDA-N): 10.8 µM | TGI (HL-60(TB) leukemia): > 23.8 µM | TGI (A498 renal): 43.6 µM | TGI (EKVX NSCLC): 11.4 µM | TGI (UACC-257 melanoma): 12.7 µM | TGI (BT-549 breast): 22 µM | TGI (OVCAR-5 ovarian): 12.3 µM | TGI (786-0 renal): 1.48 µM | TGI (KM12 colon): > 36 µM | TGI (SF-295 CNS): 18.5 µM | TGI (HCT-15 colon): 25.7 µM | TGI (M14 melanoma): 6.48 µM | TGI (SK-MEL-5 melanoma): 15.5 µM | TGI (U251 CNS): 1.85 µM | TGI (RXF 393 renal): 2.2 µM | TGI (HCC-2998 colon): 2.25 µM | TGI (MDA-MB-435): 6.51 µM | TGI (HOP-62 NSCLC): 2.51 µM | TGI (NCI-H522 lung): 3.06 µM | TGI (NCI-H226 lung): 11.1 µM | TGI (IGROV1 ovarian): 21.3 µM | TGI (PC-3 prostate): 2.46 µM | TGI (SK-OV-3 ovarian): 6.38 µM | TGI (OVCAR-8 ovarian): 4.72 µM | TGI (MCF7 breast): > 38.1 µM | TGI (NCI-H460 lung): 2.24 µM | TGI (CAKI-1 renal): 3.85 µM | TGI (HCT-116 colon): 5.77 µM | TGI (HS 578T breast): 1.32 µM | TGI (NCI/ADR-RES ovarian): 7.4 µM | TGI (OVCAR-3 ovarian): > 25.1 µM | TGI (COLO 205 colon): 7.13 µM | TGI (MDA-MB-231 breast): 1.54 µM | TGI (CCRF-CEM leukemia): 8.3 µM
